{
  "source": "patent US9394275B2",
  "about": "“Diamide compounds having muscarinic receptor antagonist and BETA2 adrenergic receptor agonist activity” (THERAVANCE RESPIRATORY COMPANY, LLC, priority 2009, dated 2016)",
  "system": "MCh-induced bronchoconstriction in a rat",
  "assay": "Einthoven assay: bronchoprotection against methacholine (MCh)-induced bronchoconstriction",
  "assay_type": "in vivo",
  "conditions": "for inhibition in vivo at 0.1 mg: inhaled or nasal, read-out: Broncho. at 24 h",
  "protocol": "This assay measures the ability of a test compound to provide bronchoprotection against methacholine (MCh)-induced bronchoconstriction in a rat. Male Sprague-Dawley rats (Harlan, Indianapolis, Ind.), weighing between 200 g and 350 g, were used for all studies. Test compound or vehicle (sterile deionized water) were dosed by inhalation (IH) over a 10 min period in a pie shaped inhalation chamber (R+S Molds, San Carlos, Calif.) using 5 mL of dosing solution. […] Rats were dosed with 100 μg of test compound unless otherwise indicated. At predetermined time points, rats were anesthetized with an intraperitoneal (IP) injection of 120 mg/kg inactin (thiobutabarbital). A supplemental dose (40 mg/kg, IP) was administered if the animal responded to physical stimuli (e.g. toe pinch). The surgical site was shaved and a 1-2 cm midline incision of the ventral aspect of the neck was made. The jugular vein was isolated and cannulated with a saline-filled polyethylene catheter (PE-50) to allow IV infusion of MCh. Trachea was dissected free and cannulated with a 14G needle (#NE-014, Small Parts, Miami Lakes, Fla.). After placement of the tracheal cannula, each rat was ventilated using a respirator (Model 683, Harvard Apparatus, Inc., MA) set at a stroke volume of 1 mL/100 g body weight (but not exceeding 2.5 mL volume) and a rate of 90 strokes per minute. A T-connector was placed along the respirator expiratory tubing to allow for measurement of changes in ventilation pressure (VP) using a Biopac transducer that was connected to a Biopac […]) pre-amplifier. Body temperature was maintained at 37° C. using a heating pad. Changes in VP were recorded using the Acknowledge Data Collection Software (Santa Barbara, Calif.). Baseline values were collected for at least 2.5 min. Rats were then challenged with non-cumulative intravenous (IV) infusions of 40 and 80 μg/kg MCh. MCh was infused intravenously for 2.5 minutes from a syringe pump (sp210iw, World Precision Instruments, Inc., Sarasota, Fla.) at a rate of 2 mL/kg/min, with a 2 minute interval between the two doses of MCh. Changes in ventilation pressure (cm H2O) in treated animals are expressed as % inhibition of MCh response relative to control animals. Other bronchoconstrictors, such as histamine and acetylcholine, can be used in place of MCh in this assay. Additionally, guinea pigs can be used instead of rats. […] Inhibition greater than or equal to 30 percent at 24 h is indicative of a long duration of action.",
  "key": {"[1]": {"conditions": "rat, 100 μg by inhalation, 24 h after administration"}},
  "note": "Counter-ions that a name gives are not always drawn. Like-named read-outs stand apart in the source and are kept apart here.",
  "data": [
    {"smiles": "Cc1cc(CNC[C@H](O)c2ccc(O)c3[nH]c(=O)ccc23)ccc1NC(=O)CCCN(C)C(=O)CCN1CCC(OC(=O)Nc2ccccc2-c2ccccc2)CC1", "note": "[Compound I-2]", "values": [
      {"measurement": "Broncho. at 24 h", "setting": "[1]", "result": "No"}
    ]},
    {"smiles": "C[C@H](Cc1cccc(CC(=O)NCCCN(C)C(=O)CCN2CCC(OC(=O)Nc3ccccc3-c3ccccc3)CC2)c1)NC[C@H](O)c1ccc(O)c2[nH]c(=O)ccc12", "note": "[Compound I-12]", "values": [
      {"measurement": "Broncho. at 24 h", "setting": "[1]", "result": "No"}
    ]},
    {"smiles": "C[C@H](Cc1cccc(NC(=O)c2cccc(N(C)C(=O)CCN3CCC(OC(=O)Nc4ccccc4-c4ccccc4)CC3)c2)c1)NC[C@H](O)c1ccc(O)c2[nH]c(=O)ccc12", "note": "[Compound I-38]", "values": [
      {"measurement": "Broncho. at 24 h", "setting": "[1]", "result": "No"}
    ]},
    {"smiles": "Cc1cc(CNC[C@H](O)c2ccc(O)c3[nH]c(=O)ccc23)ccc1NC(=O)c1ccc(C)c(N(C)C(=O)CCN2CCC(OC(=O)Nc3ccccc3-c3ccccc3)CC2)c1", "note": "[Compound I-28]", "values": [
      {"measurement": "Broncho. at 24 h", "setting": "[1]", "result": "No"}
    ]},
    {"smiles": "C[C@@H](Cc1cccc(NC(=O)c2cccc(N(C)C(=O)CCN3CCC(OC(=O)Nc4ccccc4-c4ccccc4)CC3)c2)c1)NC[C@H](O)c1ccc(O)c2[nH]c(=O)ccc12", "note": "[Compound I-39]", "values": [
      {"measurement": "Broncho. at 24 h", "setting": "[1]", "result": "No"}
    ]},
    {"smiles": "Cc1cc(NC(=O)CCCCN(C)C(=O)CCN2CCC(OC(=O)Nc3ccccc3-c3ccccc3)CC2)c(C)cc1CNC[C@H](O)c1ccc(O)c2[nH]c(=O)ccc12", "note": "[Compound I-18, Biphenyl-2-ylcarbamic Acid 1-(2-{[4-(4-{[(R)-2-Hydroxy-2-(8-hydroxy-2-oxo-1,2-dihydroquinolin-5-yl)ethylamino]methyl}-2,5-dimethylphenylcarbamoyl)butyl]methylcarbamoyl}ethyl)piperidin-4-yl Ester Ditrifluoroacetic Acid Salt]", "values": [
      {"measurement": "Broncho. at 24 h", "setting": "[1]", "result": "Yes (Bronchoprotective effect present at 24 h, e.g., ≧30% inhibition of the MCh response at 24 h in the rat Einthoven assay (100 μg))"}
    ]},
    {"smiles": "Cc1cc(CNC[C@H](O)c2ccc(O)c3[nH]c(=O)ccc23)ccc1NC(=O)c1cccc(N(C)C(=O)CCN2CCC(OC(=O)Nc3ccccc3-c3ccccc3)CC2)c1", "note": "[Compound I-27]", "values": [
      {"measurement": "Broncho. at 24 h", "setting": "[1]", "result": "No"}
    ]},
    {"smiles": "CN(C(=O)CCN1CCC(OC(=O)Nc2ccccc2-c2ccccc2)CC1)c1cccc(C(=O)Nc2cccc(CCNC[C@H](O)c3ccc(O)c4[nH]c(=O)ccc34)c2)c1", "note": "[Compound I-32]", "values": [
      {"measurement": "Broncho. at 24 h", "setting": "[1]", "result": "No"}
    ]},
    {"smiles": "Cc1ccc(C(=O)Nc2ccc(CCNC[C@H](O)c3ccc(O)c4[nH]c(=O)ccc34)cc2)cc1N(C)C(=O)CCN1CCC(OC(=O)Nc2ccccc2-c2ccccc2)CC1", "note": "[Compound I-35]", "values": [
      {"measurement": "inhibition in vivo at 0.1 mg", "setting": "[1]", "result": "> 30", "unit": "%"}
    ]},
    {"smiles": "CC(Cc1ccc(CC(=O)NCc2ccc(N(C)C(=O)CCN3CCC(OC(=O)Nc4ccccc4-c4ccccc4)CC3)cc2)cc1)NC[C@H](O)c1ccc(O)c2[nH]c(=O)ccc12", "note": "(stereo partly drawn) [Compound I-80]", "values": [
      {"measurement": "Broncho. at 24 h", "setting": "[1]", "result": "No"}
    ]},
    {"smiles": "C[C@H](Cc1cccc(CCNC(=O)Cc2ccc(N(C)C(=O)CCN3CCC(OC(=O)Nc4ccccc4-c4ccccc4)CC3)cc2)c1)NC[C@H](O)c1ccc(O)c2[nH]c(=O)ccc12", "note": "[Compound I-86, Biphenyl-2-ylcarbamic Acid 1-{2-[(4-{[2-(3-{(R)-2-[(R)-2-Hydroxy-2-(8-hydroxy-2-oxo-1,2-dihydroquinolin-5-yl)ethylamino]propyl}phenyl)-ethylcarbamoyl]methyl}phenyl)methylcarbamoyl]ethyl}piperidin-4-yl Ester Ditrifluoroacetic Acid Salt]", "values": [
      {"measurement": "inhibition in vivo at 0.1 mg", "setting": "Rattus norvegicus, 24 h", "result": "> 30", "unit": "%"}
    ]},
    {"smiles": "Cc1ccc(C(=O)Nc2cccc(CC(C)NC[C@H](O)c3ccc(O)c4[nH]c(=O)ccc34)c2)cc1N(C)C(=O)CCN1CCC(OC(=O)Nc2ccccc2-c2ccccc2)CC1", "note": "(stereo partly drawn) [Compound I-37]", "values": [
      {"measurement": "Broncho. at 24 h", "setting": "[1]", "result": "No"}
    ]},
    {"smiles": "Cc1ccc(C(=O)Nc2cccc(CCNC[C@H](O)c3ccc(O)c4[nH]c(=O)ccc34)c2)cc1N(C)C(=O)CCN1CCC(OC(=O)Nc2ccccc2-c2ccccc2)CC1", "note": "[Compound I-33]", "values": [
      {"measurement": "Broncho. at 24 h", "setting": "[1]", "result": "No"}
    ]},
    {"smiles": "CN(CCCCC(=O)Nc1ccc(CNC[C@H](O)c2ccc(O)c3[nH]c(=O)ccc23)cc1)C(=O)CCN1CCC(OC(=O)Nc2ccccc2-c2ccccc2)CC1", "note": "[Compound I-14, Biphenyl-2-ylcarbamic Acid 1-(2-{[4-(4-{[(R)-2-hydroxy-2-(8-hydroxy-2-oxo-1,2-dihydroquinolin-5-yl)ethylamino]methyl}phenylcarbamoyl)-butyl]methylcarbamoyl}ethyl)piperidin-4-yl Ester Ditrifluoroacetic Acid Salt]", "values": [
      {"measurement": "Broncho. at 24 h", "setting": "[1]", "result": "Yes (Bronchoprotective effect present at 24 h, e.g., ≧30% inhibition of the MCh response at 24 h in the rat Einthoven assay (100 μg))"}
    ]},
    {"smiles": "C[C@H](Cc1ccc(NC(=O)c2cccc(N(C)C(=O)CCN3CCC(OC(=O)Nc4ccccc4-c4ccccc4)CC3)c2)cc1)NC[C@H](O)c1ccc(O)c2[nH]c(=O)ccc12", "note": "[Compound I-42]", "values": [
      {"measurement": "Broncho. at 24 h", "setting": "[1]", "result": "No"}
    ]},
    {"smiles": "CC(Cc1cccc(CNC(=O)c2cccc(N(C)C(=O)CCN3CCC(OC(=O)Nc4ccccc4-c4ccccc4)CC3)c2)c1)NC[C@H](O)c1ccc(O)c2[nH]c(=O)ccc12", "note": "(stereo partly drawn) [Compound I-44]", "values": [
      {"measurement": "Broncho. at 24 h", "setting": "[1]", "result": "No"}
    ]},
    {"smiles": "CN(C(=O)CCN1CCC(OC(=O)Nc2ccccc2-c2ccccc2)CC1)c1ccc(CC(=O)NCc2ccc(CCNC[C@H](O)c3ccc(O)c4[nH]c(=O)ccc34)cc2)cc1", "note": "[Compound I-64]", "values": [
      {"measurement": "Broncho. at 24 h", "setting": "[1]", "result": "No"}
    ]},
    {"smiles": "Cc1cc(NC(=O)c2cccc(N(C)C(=O)CCN3CCC(OC(=O)Nc4ccccc4-c4ccccc4)CC3)c2)c(C)cc1CNC[C@H](O)c1ccc(O)c2[nH]c(=O)ccc12", "note": "[Compound I-30]", "values": [
      {"measurement": "Broncho. at 24 h", "setting": "[1]", "result": "No"}
    ]},
    {"smiles": "Cc1ccc(C(=O)NCc2cccc(CC(C)NC[C@H](O)c3ccc(O)c4[nH]c(=O)ccc34)c2)cc1N(C)C(=O)CCN1CCC(OC(=O)Nc2ccccc2-c2ccccc2)CC1", "note": "(stereo partly drawn) [Compound I-45]", "values": [
      {"measurement": "Broncho. at 24 h", "setting": "[1]", "result": "No"}
    ]},
    {"smiles": "CC(Cc1ccc(CNC(=O)Cc2ccc(N(C)C(=O)CCN3CCC(OC(=O)Nc4ccccc4-c4ccccc4)CC3)cc2)cc1)NC[C@H](O)c1ccc(O)c2[nH]c(=O)ccc12", "note": "(stereo partly drawn) [Compound I-66]", "values": [
      {"measurement": "Broncho. at 24 h", "setting": "[1]", "result": "No"}
    ]},
    {"smiles": "C[C@@H](Cc1cccc(CCNC(=O)c2ccc(N(C)C(=O)CCN3CCC(OC(=O)Nc4ccccc4-c4ccccc4)CC3)cc2)c1)NC[C@H](O)c1ccc(O)c2[nH]c(=O)ccc12", "note": "[Compound I-56]", "values": [
      {"measurement": "Broncho. at 24 h", "setting": "[1]", "result": "No"}
    ]},
    {"smiles": "COc1cc(CNC[C@H](O)c2ccc(O)c3[nH]c(=O)ccc23)ccc1NC(=O)c1cccc(N(C)C(=O)CCN2CCC(OC(=O)Nc3ccccc3-c3ccccc3)CC2)c1", "note": "[Compound I-29]", "values": [
      {"measurement": "Broncho. at 24 h", "setting": "[1]", "result": "No"}
    ]},
    {"smiles": "CC(Cc1cccc(CC(=O)Nc2cccc(N(C)C(=O)CCN3CCC(OC(=O)Nc4ccccc4-c4ccccc4)CC3)c2)c1)NC[C@H](O)c1ccc(O)c2[nH]c(=O)ccc12", "note": "(stereo partly drawn) [Compound I-52]", "values": [
      {"measurement": "Broncho. at 24 h", "setting": "[1]", "result": "No"}
    ]},
    {"smiles": "C[C@@H](Cc1cccc(CC(=O)NCc2ccc(N(C)C(=O)CCN3CCC(OC(=O)Nc4ccccc4-c4ccccc4)CC3)cc2)c1)NC[C@H](O)c1ccc(O)c2[nH]c(=O)ccc12", "note": "[Compound I-79]", "values": [
      {"measurement": "Broncho. at 24 h", "setting": "[1]", "result": "No"}
    ]}
  ]
}
